Measurements taken from PubChem BioAssay AID190 (DTP/NCI, 2004).
“And” between values parts separate entries of the source, which are not always exact repeats. Equal entries are not always repeated. Toxic doses and inconclusive results are not listed. Rule for the calls: active = survival T/C of 150% or more; inactive = T/C below 125% in these data.

Test system: AKR/Lw mice, AKR lymphoma ip, median survival T/C
Assay: NCI In Vivo Anticancer Drug Screen. Data for tumor model Lymphoma AKR (Transplanted) (intraperitoneal) in AKR/Lw mice
Conditions: endpoint: median survival time, higher = longer survival
Procedure: The antitumor activity of compounds was measured in mice bearing transplantable tumors. Survival or tumor size were measured and the results are expressed as the measurement made in the treated group (T) divided by the measurement made in the vehicle treated control group (C). The tumor model used in this assay is Lymphoma AKR (Transplanted) (intraperitoneal) in AKR/Lw mice

[1] = dose: 2.5 mg/kg/injection, schedule: Q04DX003 (ip), vehicle: saline
[2] = dose: 5.0 mg/kg/injection, schedule: Q04DX003 (ip), vehicle: saline
[3] = dose: 7.5 mg/kg/injection, schedule: Q01DX009 (ip), vehicle: saline
[4] = dose: 20.0 mg/kg/injection, schedule: Q04DX003 (ip), vehicle: saline
[5] = dose: 100.0 mg/kg/injection, schedule: Q01DX001 (ip), vehicle: saline
[6] = dose: 200.0 mg/kg/injection, schedule: Q01DX001 (ip), vehicle: saline
[7] = dose: 400.0 mg/kg/injection, schedule: Q01DX001 (ip), vehicle: saline
[8] = dose: 100.0 mg/kg/injection, schedule: Q01DX001 (ip), vehicle: Klucel (hydroxypropylcellulose) (HPC)
[9] = dose: 200.0 mg/kg/injection, schedule: Q01DX001 (ip), vehicle: Klucel (hydroxypropylcellulose) (HPC)
[10] = dose: 400.0 mg/kg/injection, schedule: Q01DX001 (ip), vehicle: Klucel (hydroxypropylcellulose) (HPC)

Measured: T/C

O=[N+]([O-])O.[Ga]
inactive: dose: 1.25 mg/kg/injection, schedule: Q01DX001 (ip), vehicle: saline 102 % of control | dose: 2.5 mg/kg/injection, schedule: Q01DX001 (ip), vehicle: saline 102 % of control | dose: 2.5 mg/kg/injection, schedule: Q01DX009 (ip), vehicle: saline 114 % of control | [1] 87 % of control | dose: 3.1 mg/kg/injection, schedule: Q01DX001 (ip), vehicle: saline 105 % of control | dose: 5.0 mg/kg/injection, schedule: Q01DX001 (ip), vehicle: saline 102 % of control | dose: 5.0 mg/kg/injection, schedule: Q01DX009 (ip), vehicle: saline 91 % of control and 100 % of control | [2] 93 % of control and 108 % of control | dose: 6.2 mg/kg/injection, schedule: Q01DX001 (ip), vehicle: saline 94 % of control | dose: 6.2 mg/kg/injection, schedule: Q04DX003 (ip), vehicle: saline 102 % of control | [3] 86 % of control | dose: 8.0 mg/kg/injection, schedule: Q01DX009 (ip), vehicle: saline 100 % of control | dose: 10.0 mg/kg/injection, schedule: Q01DX001 (ip), vehicle: saline 92 % of control and 105 % of control | dose: 10.0 mg/kg/injection, schedule: Q01DX009 (ip), vehicle: saline 97 % of control and 111 % of control | dose: 10.0 mg/kg/injection, schedule: Q04DX003 (ip), vehicle: saline 87 % of control and 108 % of control | dose: 12.5 mg/kg/injection, schedule: Q01DX009 (ip), vehicle: saline 105 % of control | dose: 12.5 mg/kg/injection, schedule: Q04DX003 (ip), vehicle: saline 102 % of control | dose: 20.0 mg/kg/injection, schedule: Q01DX001 (ip), vehicle: saline 105 % of control | dose: 20.0 mg/kg/injection, schedule: Q01DX009 (ip), vehicle: saline 94 % of control and 102 % of control | [4] 93 % of control and 106 % of control | dose: 25.0 mg/kg/injection, schedule: Q01DX009 (ip), vehicle: saline 88 % of control and 105 % of control | dose: 25.0 mg/kg/injection, schedule: Q04DX003 (ip), vehicle: saline 94 % of control | dose: 40.0 mg/kg/injection, schedule: Q01DX001 (ip), vehicle: saline 105 % of control | dose: 50.0 mg/kg/injection, schedule: Q01DX009 (ip), vehicle: saline 105 % of control and 110 % of control and 113 % of control | dose: 64.0 mg/kg/injection, schedule: Q04DX003 (ip), vehicle: water 116 % of control | dose: 500.0 mg/kg/injection, schedule: Q01DX001 (ip), vehicle: saline 88 % of control and 95 % of control

Nc1ccccc1SC1CC(=O)N(c2ccccc2)C1=O (stereo not drawn)
inactive: dose: 100.0 mg/kg/injection, schedule: Q01DX001 (ip), vehicle: saline with Tween-80 94 % of control | dose: 200.0 mg/kg/injection, schedule: Q01DX001 (ip), vehicle: saline with Tween-80 94 % of control | dose: 400.0 mg/kg/injection, schedule: Q01DX001 (ip), vehicle: saline with Tween-80 94 % of control

C1=CC2(OCCO2)C2CC=CC3(OCCO3)C2C1 (stereo not drawn)
inactive: [5] 104 % of control | [6] 97 % of control | [7] 95 % of control

COC(=O)C(COS(=O)(=O)c1ccccc1)NC(=O)OCc1ccccc1 (stereo not drawn)
inactive: [5] 94 % of control | [6] 97 % of control | [7] 102 % of control

COc1ccc(NC(=S)Nc2ccccn2)cc1
inactive: [8] 100 % of control

c1cc2cc3c(cc2cc1CC1NCCc2cc4c(cc21)OCO4)OCO3 (stereo not drawn)
inactive: [8] 94 % of control | dose: 100.0 mg/kg/injection, schedule: Q04DX003 (ip), vehicle: Klucel (hydroxypropylcellulose) (HPC) 96 % of control | [9] 105 % of control | [10] 94 % of control

O=C(Nc1ccccc1)Oc1ccc(Cl)cc1
inactive: [8] 100 % of control | [9] 100 % of control | [10] 106 % of control

CC(=O)CC(=O)c1ccccc1
inactive: [8] 106 % of control | [9] 106 % of control | [10] 103 % of control

COC(=O)Cc1ccc([N+](=O)[O-])cc1[N+](=O)[O-]
inactive: [5] 94 % of control | [6] 94 % of control | [7] 97 % of control

COC(=O)C1(C)CSCCC1=O (stereo not drawn)
inactive: [8] 91 % of control | [9] 105 % of control | [10] 96 % of control

O=C(O)CCCc1ccc(N(CCCl)CCCl)cc1
inactive: dose: 0.12 mg/kg/injection, schedule: Q01DX009 (ip), vehicle: Klucel (hydroxypropylcellulose) (HPC) 97 % of control | dose: 0.25 mg/kg/injection, schedule: Q01DX009 (ip), vehicle: Klucel (hydroxypropylcellulose) (HPC) 94 % of control and 96 % of control | dose: 0.5 mg/kg/injection, schedule: Q01DX009 (ip), vehicle: Klucel (hydroxypropylcellulose) (HPC) 100 % of control | dose: 1.0 mg/kg/injection, schedule: Q01DX009 (ip), vehicle: Klucel (hydroxypropylcellulose) (HPC) 96 % of control and 102 % of control | dose: 1.2 mg/kg/injection, schedule: Q01DX009 (ip), vehicle: Klucel (hydroxypropylcellulose) (HPC) 100 % of control | dose: 1.2 mg/kg/injection, schedule: Q04DX003 (ip), vehicle: Klucel (hydroxypropylcellulose) (HPC) 94 % of control | dose: 1.25 mg/kg/injection, schedule: Q04DX003 (ip), vehicle: saline 103 % of control | dose: 2.0 mg/kg/injection, schedule: Q01DX009 (ip), vehicle: Klucel (hydroxypropylcellulose) (HPC) 100 % of control | dose: 2.5 mg/kg/injection, schedule: Q01DX009 (ip), vehicle: Klucel (hydroxypropylcellulose) (HPC) 93 % of control and 107 % of control | dose: 2.5 mg/kg/injection, schedule: Q04DX003 (ip), vehicle: Klucel (hydroxypropylcellulose) (HPC) 100 % of control | [1] 86 % of control and 118 % of control | dose: 3.75 mg/kg/injection, schedule: Q01DX009 (ip), vehicle: saline 119 % of control | dose: 4.0 mg/kg/injection, schedule: Q01DX009 (ip), vehicle: Klucel (hydroxypropylcellulose) (HPC) 118 % of control | dose: 5.0 mg/kg/injection, schedule: Q01DX009 (ip), vehicle: Klucel (hydroxypropylcellulose) (HPC) 86 % of control and 110 % of control | dose: 5.0 mg/kg/injection, schedule: Q04DX003 (ip), vehicle: Klucel (hydroxypropylcellulose) (HPC) 100 % of control and 105 % of control and 117 % of control | [2] 93 % of control and 97 % of control | dose: 6.2 mg/kg/injection, schedule: Q01DX001 (ip), vehicle: Klucel (hydroxypropylcellulose) (HPC) 95 % of control and 120 % of control | dose: 6.25 mg/kg/injection, schedule: Q01DX009 (ip), vehicle: saline 97 % of control | dose: 7.5 mg/kg/injection, schedule: Q01DX009 (ip), vehicle: Klucel (hydroxypropylcellulose) (HPC) 106 % of control | [3] 122 % of control | dose: 12.5 mg/kg/injection, schedule: Q01DX001 (ip), vehicle: Klucel (hydroxypropylcellulose) (HPC) 109 % of control and 118 % of control | dose: 12.5 mg/kg/injection, schedule: Q01DX001 (ip), vehicle: saline 109 % of control and 111 % of control | dose: 15.0 mg/kg/injection, schedule: Q01DX009 (ip), vehicle: saline 122 % of control | [4] 94 % of control | dose: 40.0 mg/kg/injection, schedule: Q04DX003 (ip), vehicle: Klucel (hydroxypropylcellulose) (HPC) 100 % of control | [8] 104 % of control
